Source: a compilation of properties of binary mixtures (doi:10.1016/j.molliq.2008.06.014)

Assay: xn = mol fraction of the nth substance listed
Conditions: 101 kPa

CN(C)CCO + CCCC[n+]1ccn(C)c1.F[P-](F)(F)(F)(F)F
Conditions	electrical conductivity [S/m]	viscosity [mPa·s]
288.15 K, x1 = 0.1221	0.12	213
288.15 K, x1 = 0.2143	0.14	159
288.15 K, x1 = 0.4405	–	81
288.15 K, x1 = 0.4637	0.179	–
288.15 K, x1 = 0.605	0.206	46
288.15 K, x1 = 0.9128	0.135	9.5
288.15 K, x1 = 1	0.082	5
293.15 K, x1 = 0.1221	0.161	157
293.15 K, x1 = 0.3182	0.203	88
293.15 K, x1 = 0.3764	0.226	–
293.15 K, x1 = 0.605	0.264	35
293.15 K, x1 = 0.709	0.266	23
293.15 K, x1 = 0.9128	0.16	8
293.15 K, x1 = 1	0.091	4.3
298.15 K, x1 = 0.2143	0.242	88
298.15 K, x1 = 0.3182	0.263	66
298.15 K, x1 = 0.3764	0.285	–
298.15 K, x1 = 0.4405	–	46
298.15 K, x1 = 0.5166	0.322	36
298.15 K, x1 = 0.605	0.333	27
298.15 K, x1 = 0.709	0.332	18.2
298.15 K, x1 = 0.8063	0.297	11.8
303.15 K, x1 = 0.1221	0.272	88
303.15 K, x1 = 0.2143	0.311	68
303.15 K, x1 = 0.3182	0.341	51
303.15 K, x1 = 0.4637	0.389	–
303.15 K, x1 = 0.5166	0.403	28
303.15 K, x1 = 0.605	0.414	21.4
303.15 K, x1 = 0.709	0.404	14.7
303.15 K, x1 = 0.9128	0.218	5.6
303.15 K, x1 = 1	0.11	3.2
308.15 K, x1 = 0.1221	0.348	67
308.15 K, x1 = 0.2143	0.396	52
308.15 K, x1 = 0.3182	0.431	39
308.15 K, x1 = 0.3764	0.461	–
308.15 K, x1 = 0.5166	0.502	22.4
308.15 K, x1 = 0.605	0.51	17
308.15 K, x1 = 0.709	0.49	11.9
308.15 K, x1 = 0.8063	0.423	8
308.15 K, x1 = 0.9128	0.252	4.8
308.15 K, x1 = 1	0.12	2.9
313.15 K, x1 = 0.1221	0.434	53
313.15 K, x1 = 0.2143	0.491	41
313.15 K, x1 = 0.3182	0.531	31
313.15 K, x1 = 0.3764	0.564	–
313.15 K, x1 = 0.4405	–	22.6
313.15 K, x1 = 0.4637	0.589	–
313.15 K, x1 = 0.5166	0.606	18.1
313.15 K, x1 = 0.709	0.583	9.8
313.15 K, x1 = 0.8063	0.494	6.7
313.15 K, x1 = 0.9128	0.288	4.1
313.15 K, x1 = 1	0.131	2.5
318.15 K, x1 = 0.1221	0.531	42
318.15 K, x1 = 0.2143	0.599	33
318.15 K, x1 = 0.3182	0.648	25
318.15 K, x1 = 0.4405	–	18.6
318.15 K, x1 = 0.4637	0.713	–
318.15 K, x1 = 0.5166	0.727	14.9
318.15 K, x1 = 0.605	0.726	11.6
318.15 K, x1 = 0.709	0.682	8.3
318.15 K, x1 = 0.8063	0.571	5.7
318.15 K, x1 = 0.9128	0.326	3.6
318.15 K, x1 = 1	0.141	2.27
323.15 K, x1 = 0.1221	0.63	35
323.15 K, x1 = 0.2143	0.712	28
323.15 K, x1 = 0.3182	0.767	21.2
323.15 K, x1 = 0.4405	–	15.7
323.15 K, x1 = 0.4637	0.834	–
323.15 K, x1 = 0.605	0.841	9.9
323.15 K, x1 = 0.709	0.784	7.1
323.15 K, x1 = 0.8063	0.648	5
323.15 K, x1 = 0.9128	0.363	3.2

NCCO + CCCC[n+]1ccn(C)c1.F[P-](F)(F)(F)(F)F
x1 = 1
Conditions	electrical conductivity [S/m]	viscosity [mPa·s]
298.15 K	0.0023	18.6
303.15 K	0.0027	15
308.15 K	0.0032	11.9
313.15 K	0.0036	9.9
323.15 K	0.0069	7

CCCC[n+]1ccn(C)c1.F[P-](F)(F)(F)(F)F + CN(C)CCO
x2 = 0
Conditions	electrical conductivity [S/m]	viscosity [mPa·s]
288.15 K	0.105	350
293.15 K	0.142	250
298.15 K	0.185	182
303.15 K	0.24	136
308.15 K	0.309	102
313.15 K	0.384	79
318.15 K	0.421	62
323.15 K	0.504	48
